What was measured:
[1] = system: A549, EAhy and HFL1 triculture aggregates; assay: 3D triculture suspension culture with soluble ECM (self-patterning, growth, fibronectin); format: cell-based, human; details: 100 μg mL−1 soluble ECM; day 14
Protocol: To calculate the seeding ratios for each cell line, literature search led us to lung alveolar cell ratios to be around 24% epithelial, 30% endothelial, and 37% interstitial. By this, we simplified the seeding ratio to be roughly 1:2:2 (A549 epithelial: EAhy endothelial: HFL1 fibroblast). For suspension-based cultures, a seeding ratio of 1.0×104 to 1.0×10^5 total cells per aggregate was used and was divided to cach of the cell line using the ratio above. 100-200 μL of mixed cell suspension in 3D media or ECM supplemented 3D media were seeded into cach well of the 96-well ULA plate. […]
Triculture cell aggregates were grown for 14 days using either traditional force aggregation (FA) or as supplemented with 300 μg mL^−1 Matrigel®. […] Cell aggregate sections were then selected using the freeform selection tool and measured for area. […]
We then engineered a 3D triculture to model the lung alveolus and the morphological changes accompanying soluble ECM concentration. […] Cell seeding ratios were followed based on endogenous human lung cell composition which we determined to be roughly 1:2:2 (epithelial: interstitial: vascular) (Table S1).

[2] = system: human fluorescent lung organoid (hFLO); assay: Bleomycin-induced fibrosis in hFLO with fasudil antifibrotic trial (histochemistry, immunohistochemistry, live confocal imaging); format: cell-based; details: for lumen area: bleomycin 20 μg mL−1 for 3 days from day 7, then 10 μM fasudil for 4 days, day 14; for collagen deposition (Masson staining) / pro-fibrotic expression (αSMA, fibronectin, PDGFRα; H-DAB): bleomycin 20 μg mL−1 for 3 days, then 10 μM fasudil for 4 days
Protocol: Cell aggregates were grown as described above for 7 days, after which the cell aggregates were treated with 20 μg mL 1 bleomycin (13877, Cayman Chemical Company, MI, USA, stock solution diluted in either PBS or DMSO). Media was changed after 3 days of culture with bleomycin (i.e., at day 10). At day 10, the organoids were weaned off the bleomycin insult and then treated with either 10 μM fasudil (B3523, ApexBio, TX, USA) or with DMSO (control, vehicle used for fasudil). The cultures were kept in treatment media for 4 more days with media changing every two days. Cell aggregates and media were collected and fixed as described above.
Histologically stained samples were imaged and processed with ImageJ software. First, images were converted to an 8-bit greyscale, after which a threshold was applied. The image was then processed five times iteratively with the dilate function to converging boundary cells. […] The “count particles” function was used to measure lumen characteristics. Data was processed in Microsoft Excel, lumen under the size of 200 μm2 were excluded in all analysis except the calculations of total lumen area and lumen percent arca.
The ratios of collagen to tissue in organoids were determined by analyzing images of Masson-Trichrome stained sections. These images were separated into red, blue, and green components using ImageJ using color deconvolution function. For the Masson staining, areas of the blue and red image channels were determined by thresholding and collagen deposition was determined as the ratio of blue area to red area (collagen to tissue). Intensity histograms were created using the ImageJ histogram function on the selected red area, and average pixel intensity was calculated from the histogram output in Microsoft Excel. For H-DAB, the target protein is the brown channel and the hematoxylin is the blue-purple channel.
There is a critical need for viable organotypic models for the human lung to model diseases including pulmonary fibrosis (PF). In order to fill this need, we induced fibrosis using bleomycin in our hFLO model. Bleomycin-induced PF is an extensively used animal-based model for fibrosis, despite significant cellular and molecular differences between mouse and human lungs. Moreover, therapeutics against PF are limited due to lack of organotypic lung models adapted for drug testing and screening. […] This therapy, however, has not yet been validated in a human lung model. Here, we grew hFLO for 7 days and induced fibrosis using 20 μg mL−1 bleomycin for 3 days, after which aggregates were treated with 10 μM fasudil, a ROCK inhibitor for 4 days to observe possible changes in fibrosis (FIG. 5A). […] In PF, there is an observed alveolar and bronchiolar epithelial cell death and fibroblast abundance. We observed that with bleomycin induction, there was a decrease in the epithelial A549 with an increase in fibroblast HFL1 population ([…]).

[3] = system: secreted factors from hFLO aggregates; assay: Cytokine array of media from hFLO treatment groups; format: cell-based, human; details: media at day 14
Protocol: The organoid media from the three treatment groups were collected at day 14. The levels of cytokines secreted to the media were immediately evaluated using the Human Cytokine Array C1000 (AAH-CYT-1000-8, Ray Biotech, GA, USA) with minor modifications. Briefly, the membranes were blocked at room temperature for 30 minutes using the blocking buffer. The media from the organoids were transferred onto the membranes and incubated with gentle rocking overnight at 4° C. After washing, the membranes were incubated with the biotinylated antibody cocktail overnight at 4° C. After further washes, the membranes were probed with Streptavidin-CF680R (29072, Biotium, CA, USA 1:1000) for 1 hour at RT. The membranes were imaged using an Odyssey CLx imager (LI-COR, Cambridge, UK) at high resolution and a wavelength of 700 nm. The exported images of the membranes were quantified using gel analysis plugin on FIJI distribution of ImageJ (open source) under the GNU General Public License.
To further confirm the fibrosis in hFLO-bleomycin fibrotic model and the anti-fibrotic effects of fasudil, we collected culture media from the aggregates and performed a cytokine array using 120 common inflammatory factors.

[4] = of 120 common inflammatory factors
[5] = bleomycin 20 μg mL−1, live 3D confocal volumetric analysis

Molecule | aggregate structure (H&E) [1] | lumen area [2] | collagen deposition (Masson staining) [2] | pro-fibrotic expression (αSMA, fibronectin, PDGFRα; H-DAB) [2] | secretion of pro-angiogenic factors including FGF2 and VEGFA [3] | secretion of pro-inflammatory factors (CX3CL1, AREG, CCL3, IL4, IL2, AXL, EGF, IL6 among others) [3] | number of factors significantly changed (Fasudil vs Bleomycin) [3, 4] [factors] | number of factors significantly changed between control and fasudil treatment [3, 4] [factors] | epithelial A549 population [2, 5] | fibroblast HFL1 population [2, 5] | number of factors significantly increased (Control vs Bleomycin) [3, 4] [factors]
collagen I: rat tail collagen I (Sigma-Aldrich), used as soluble ECM supplement | predominantly compact cell clusters |  |  |  |  |  |  |  |  |  | 
O=S(=O)(c1cccc2cnccc12)N1CCCNCC1 [fasudil] |  | rescued | decreased intensity | lowered | decreased | significantly decreased | 56 | 36 |  |  | 
bleomycin |  | decreased lumen area | increased collagen deposition | increased | increased secretion | increase |  |  | decrease | increase | 68
